Reference: patent publication US20090118173A1, “TREATMENT AND PREVENTION OF INFLAMMATORY BOWEL DISEASES” (priority 2006, published 2009)

How the values were obtained:
[1] = tested on: human MHC class II molecules; details: human B cell line under stress (nutrient deprivation); peptide of the same sequence; cited from earlier work
[2] = tested on: primed spleen and draining lymph node cells; assay: T-cell proliferation (tritium incorporation) of peptide-pool primed spleen and draining lymph node cells re-stimulated in vitro with individual peptides; format: cell-based, Balb/c mice; details: mice immunized with peptide pools, in vitro re-stimulation with the individual peptide
Description: (§1) To define the epitopes more precisely, we divided the 13 peptides, based on the degree of sequence identity between bacterial and the homologous mouse Hsp70s, in three pools (pool A: non-conserved peptides, pool B: conserved peptides comprising at least about 80% amino acid identity to the mouse homologue, and pool C: highly conserved peptides comprising >86% amino acid identity to the mouse homologue, see below) and immunized 10-12 weeks old Balb/c mice twice with a 2 week interval (intraperitoneally and subcutaneously) with the peptide pools. 10 days after the second immunization primed spleen and draining lymph node cells were re-stimulated in vitro with all the 13 individual peptides after which we measured T-cell proliferation (tritium incorporation), IFNγ, IL10, IL4 and IL5 production (cytokine production).

[3] = tested on: bacterially primed T-cells; assay: Cross reactivity of bacterial peptide primed T cells with corresponding mouse homologue peptides; format: cell-based, Balb/c mice; details: proliferation and cytokine production
Description: To test cross-reactivity, i.e. the capacity of selected peptides to induce T cells cross-reactive with homologous self-proteins, the following method can be used (see also Examples):
Any sign of activation (see above) can be taken as an indication of cross-reactivity of the test (e.g. microbial) epitope with the self protein/peptide. Initial testing can be carried out with a synthetic peptide based on the sequence of the self protein/peptide, but final proof for cross-reactivity with the protein/peptide itself, either in isolated form or expressed on cells, is preferably obtained in T cell activation tests with (stressed) antigen presenting cells (over)expressing and presenting the self HSP-peptide, in order to exclude cryptic epitopes.
as §1

[4] = tested on: primed spleen and draining lymph node cells; assay: Cytokine production (IFNγ, IL10, IL4, IL5) of peptide-pool primed spleen and draining lymph node cells re-stimulated in vitro; format: cell-based, Balb/c mice; details: mice immunized with peptide pools; in vitro re-stimulation with the individual peptide
Description: as §1

Row | Sequence | elution from human MHC class II molecules [1] | T-cell proliferation response [2] | Cross-reactivity of bacterially primed T-cells with mouse homologue peptide [3] | IFN-gamma [4] | IL-10 [4]
1 | VLRIINEPTAAAIAY (listed as Mus musculus) [mC1b] | eluted from human MHC class II molecules |  |  |  | 
2 | KPFQSVIADTGISVS (listed as Mycobacterium tuberculosis) [Peptide A1, mycobacterial hsp70 peptide, pool A (not conserved)] |  | increased | no | increased | augmented
3 | VLRIVNEPTAAALAY (listed as Mycobacterium tuberculosis) [Peptide C1] |  | increased | induced cross reactive T cell responses and yes | increased | augmented
4 | DEVVAVGAALQAGVL (listed as Mycobacterium tuberculosis) [Peptide B1, mycobacterial hsp70 peptide, pool B (conserved)] |  | increased | induced cross reactive T cell responses and Yes | increased | No
